Measurements: ChEMBL document CHEMBL4765331, “Amides of pyrrole- and thiophene-fused anthraquinone derivatives: A role of the heterocyclic core in antitumor properties” (Eur J Med Chem, 2020)

Tested on: CAPAN-1
Test: Antiproliferative activity against human CAPAN-1 cells assessed as inhibition of cell proliferation measured after 72 hrs by MTT assay
Format: functional, cell-based
Conditions: CAPAN-1, 72 h

Structure (SMILES)	IC50 [nM]
Cc1[nH]c2c(O)c3c(c(O)c2c1C(=O)NC1CCNCC1)C(=O)c1ccccc1C3=O	300
N[C@@H]1CN(C(=O)c2csc3c(O)c4c(c(O)c23)C(=O)c2ccccc2C4=O)C[C@H]1N	2600
CCCn1c(C)c(C(=O)N2CC[C@H](N)C2)c2c(O)c3c(c(O)c21)C(=O)c1ccccc1C3=O	4500
Cc1[nH]c2c(O)c3c(c(O)c2c1C(=O)N1CCCC(N)C1)C(=O)c1ccccc1C3=O (stereo unspecified)	1100
NC1CCN(C(=O)c2csc3c(O)c4c(c(O)c23)C(=O)c2ccccc2C4=O)CC1	300
O=C1c2ccccc2C(=O)c2c1c(O)c1scc(C(=O)N[C@@H]3CCNC3)c1c2O	2200
CC(=O)Cn1c(C)c(C(=O)N2CC[C@H](N)C2)c2c(O)c3c(c(O)c21)C(=O)c1ccccc1C3=O	13400
Cc1[nH]c2c(O)c3c(c(O)c2c1C(=O)N1C[C@@H](N)[C@H](N)C1)C(=O)c1ccccc1C3=O	8700
NC1CCCN(C(=O)c2csc3c(O)c4c(c(O)c23)C(=O)c2ccccc2C4=O)C1 (racemic)	1100
O=C1c2ccccc2C(=O)c2c1c(O)c1scc(C(=O)NC3CCCNC3)c1c2O (racemic)	1200
O=C1c2ccccc2C(=O)c2c1c(O)c1scc(C(=O)NC3CCNCC3)c1c2O	1200
Cc1[nH]c2c(O)c3c(c(O)c2c1C(=O)N[C@@H]1CCNC1)C(=O)c1ccccc1C3=O	1000

Tested on: HCT-116
Test: Antiproliferative activity against human HCT-116 cells assessed as inhibition of cell proliferation measured after 72 hrs by MTT assay
Format: functional, cell-based
Conditions: HCT-116, 72 h

Structure (SMILES)	IC50 [nM]
Cc1[nH]c2c(O)c3c(c(O)c2c1C(=O)NC1CCNCC1)C(=O)c1ccccc1C3=O	1500
N[C@@H]1CN(C(=O)c2csc3c(O)c4c(c(O)c23)C(=O)c2ccccc2C4=O)C[C@H]1N	4000
CCCn1c(C)c(C(=O)N2CC[C@H](N)C2)c2c(O)c3c(c(O)c21)C(=O)c1ccccc1C3=O	2200
Cc1[nH]c2c(O)c3c(c(O)c2c1C(=O)N1CCCC(N)C1)C(=O)c1ccccc1C3=O (stereo unspecified)	2000
NC1CCN(C(=O)c2csc3c(O)c4c(c(O)c23)C(=O)c2ccccc2C4=O)CC1	1900
O=C1c2ccccc2C(=O)c2c1c(O)c1scc(C(=O)N[C@@H]3CCNC3)c1c2O	800
CC(=O)Cn1c(C)c(C(=O)N2CC[C@H](N)C2)c2c(O)c3c(c(O)c21)C(=O)c1ccccc1C3=O	16900
Cc1[nH]c2c(O)c3c(c(O)c2c1C(=O)N1C[C@@H](N)[C@H](N)C1)C(=O)c1ccccc1C3=O	4800
NC1CCCN(C(=O)c2csc3c(O)c4c(c(O)c23)C(=O)c2ccccc2C4=O)C1 (racemic)	800
O=C1c2ccccc2C(=O)c2c1c(O)c1scc(C(=O)NC3CCCNC3)c1c2O (racemic)	3200
O=C1c2ccccc2C(=O)c2c1c(O)c1scc(C(=O)NC3CCNCC3)c1c2O	1700
Cc1[nH]c2c(O)c3c(c(O)c2c1C(=O)N[C@@H]1CCNC1)C(=O)c1ccccc1C3=O	2300

Tested on: NCI-H460
Test: Antiproliferative activity against human NCI-H460 cells assessed as inhibition of cell proliferation measured after 72 hrs by MTT assay
Format: functional, cell-based
Conditions: NCI-H460, 72 h

Structure (SMILES)	IC50 [nM]
Cc1[nH]c2c(O)c3c(c(O)c2c1C(=O)NC1CCNCC1)C(=O)c1ccccc1C3=O	1100
N[C@@H]1CN(C(=O)c2csc3c(O)c4c(c(O)c23)C(=O)c2ccccc2C4=O)C[C@H]1N	12700
CCCn1c(C)c(C(=O)N2CC[C@H](N)C2)c2c(O)c3c(c(O)c21)C(=O)c1ccccc1C3=O	14300
Cc1[nH]c2c(O)c3c(c(O)c2c1C(=O)N1CCCC(N)C1)C(=O)c1ccccc1C3=O (stereo unspecified)	2600
NC1CCN(C(=O)c2csc3c(O)c4c(c(O)c23)C(=O)c2ccccc2C4=O)CC1	1700
O=C1c2ccccc2C(=O)c2c1c(O)c1scc(C(=O)N[C@@H]3CCNC3)c1c2O	2000
CC(=O)Cn1c(C)c(C(=O)N2CC[C@H](N)C2)c2c(O)c3c(c(O)c21)C(=O)c1ccccc1C3=O	16400
Cc1[nH]c2c(O)c3c(c(O)c2c1C(=O)N1C[C@@H](N)[C@H](N)C1)C(=O)c1ccccc1C3=O	11400
NC1CCCN(C(=O)c2csc3c(O)c4c(c(O)c23)C(=O)c2ccccc2C4=O)C1 (racemic)	4300
O=C1c2ccccc2C(=O)c2c1c(O)c1scc(C(=O)NC3CCCNC3)c1c2O (racemic)	2700
O=C1c2ccccc2C(=O)c2c1c(O)c1scc(C(=O)NC3CCNCC3)c1c2O	1200
Cc1[nH]c2c(O)c3c(c(O)c2c1C(=O)N[C@@H]1CCNC1)C(=O)c1ccccc1C3=O	4400

Tested on: HL-60
Test: Antiproliferative activity against human HL-60 cells assessed as inhibition of cell proliferation measured after 72 hrs by MTT assay
Format: functional, cell-based
Conditions: HL-60, 72 h

Structure (SMILES)	IC50 [nM]
Cc1[nH]c2c(O)c3c(c(O)c2c1C(=O)NC1CCNCC1)C(=O)c1ccccc1C3=O	200
N[C@@H]1CN(C(=O)c2csc3c(O)c4c(c(O)c23)C(=O)c2ccccc2C4=O)C[C@H]1N	4700
CCCn1c(C)c(C(=O)N2CC[C@H](N)C2)c2c(O)c3c(c(O)c21)C(=O)c1ccccc1C3=O	1300
Cc1[nH]c2c(O)c3c(c(O)c2c1C(=O)N1CCCC(N)C1)C(=O)c1ccccc1C3=O (stereo unspecified)	200
NC1CCN(C(=O)c2csc3c(O)c4c(c(O)c23)C(=O)c2ccccc2C4=O)CC1	900
O=C1c2ccccc2C(=O)c2c1c(O)c1scc(C(=O)N[C@@H]3CCNC3)c1c2O	4600
CC(=O)Cn1c(C)c(C(=O)N2CC[C@H](N)C2)c2c(O)c3c(c(O)c21)C(=O)c1ccccc1C3=O	3400
Cc1[nH]c2c(O)c3c(c(O)c2c1C(=O)N1C[C@@H](N)[C@H](N)C1)C(=O)c1ccccc1C3=O	3100
NC1CCCN(C(=O)c2csc3c(O)c4c(c(O)c23)C(=O)c2ccccc2C4=O)C1 (racemic)	3000
O=C1c2ccccc2C(=O)c2c1c(O)c1scc(C(=O)NC3CCCNC3)c1c2O (racemic)	2600
O=C1c2ccccc2C(=O)c2c1c(O)c1scc(C(=O)NC3CCNCC3)c1c2O	1600
Cc1[nH]c2c(O)c3c(c(O)c2c1C(=O)N[C@@H]1CCNC1)C(=O)c1ccccc1C3=O	1000

Tested on: K562
Test: Antiproliferative activity against human K562 cells assessed as inhibition of cell proliferation measured after 72 hrs by MTT assay
Format: functional, cell-based
Conditions: K562, 72 h

Structure (SMILES)	IC50 [nM]
Cc1[nH]c2c(O)c3c(c(O)c2c1C(=O)NC1CCNCC1)C(=O)c1ccccc1C3=O	400
N[C@@H]1CN(C(=O)c2csc3c(O)c4c(c(O)c23)C(=O)c2ccccc2C4=O)C[C@H]1N	1300
CCCn1c(C)c(C(=O)N2CC[C@H](N)C2)c2c(O)c3c(c(O)c21)C(=O)c1ccccc1C3=O	1200
Cc1[nH]c2c(O)c3c(c(O)c2c1C(=O)N1CCCC(N)C1)C(=O)c1ccccc1C3=O (stereo unspecified)	400
NC1CCN(C(=O)c2csc3c(O)c4c(c(O)c23)C(=O)c2ccccc2C4=O)CC1	2000
O=C1c2ccccc2C(=O)c2c1c(O)c1scc(C(=O)N[C@@H]3CCNC3)c1c2O	500
CC(=O)Cn1c(C)c(C(=O)N2CC[C@H](N)C2)c2c(O)c3c(c(O)c21)C(=O)c1ccccc1C3=O	2200
Cc1[nH]c2c(O)c3c(c(O)c2c1C(=O)N1C[C@@H](N)[C@H](N)C1)C(=O)c1ccccc1C3=O	2400
NC1CCCN(C(=O)c2csc3c(O)c4c(c(O)c23)C(=O)c2ccccc2C4=O)C1 (racemic)	1300
O=C1c2ccccc2C(=O)c2c1c(O)c1scc(C(=O)NC3CCCNC3)c1c2O (racemic)	6800
O=C1c2ccccc2C(=O)c2c1c(O)c1scc(C(=O)NC3CCNCC3)c1c2O	1500
Cc1[nH]c2c(O)c3c(c(O)c2c1C(=O)N[C@@H]1CCNC1)C(=O)c1ccccc1C3=O	800

Tested on: not listed separately
Test: Antiproliferative activity against P-gp-positive/doxorubicin-resistant human K562/4 cells assessed as inhibition of cell proliferation measured after 72 hrs by MTT assay
Format: functional
Conditions: K562/4, 72 h

Structure (SMILES)	IC50 [nM]
N[C@@H]1CN(C(=O)c2csc3c(O)c4c(c(O)c23)C(=O)c2ccccc2C4=O)C[C@H]1N	14500
CCCn1c(C)c(C(=O)N2CC[C@H](N)C2)c2c(O)c3c(c(O)c21)C(=O)c1ccccc1C3=O	7000
Cc1[nH]c2c(O)c3c(c(O)c2c1C(=O)N1C[C@@H](N)[C@H](N)C1)C(=O)c1ccccc1C3=O	> 50000

Tested on: HCT-116
Test: Antiproliferative activity against human HCT-116 cells with inactivated p53 gene assessed as inhibition of cell proliferation measured after 72 hrs by MTT assay
Format: functional, cell-based
Conditions: HCT-116, 72 h

Structure (SMILES)	IC50 [nM]
N[C@@H]1CN(C(=O)c2csc3c(O)c4c(c(O)c23)C(=O)c2ccccc2C4=O)C[C@H]1N	3800
CCCn1c(C)c(C(=O)N2CC[C@H](N)C2)c2c(O)c3c(c(O)c21)C(=O)c1ccccc1C3=O	2000
Cc1[nH]c2c(O)c3c(c(O)c2c1C(=O)N1C[C@@H](N)[C@H](N)C1)C(=O)c1ccccc1C3=O	7000

Tested on: TERT-RPE1
Test: Cytotoxicity against human TERT-RPE1 cells assessed as inhibition of cell proliferation measured after 72 hrs by MTT assay
Format: cell-based
Conditions: RPE-1, 72 h

Structure (SMILES)	IC50 [nM]
Cc1[nH]c2c(O)c3c(c(O)c2c1C(=O)NC1CCNCC1)C(=O)c1ccccc1C3=O	11800
N[C@@H]1CN(C(=O)c2csc3c(O)c4c(c(O)c23)C(=O)c2ccccc2C4=O)C[C@H]1N	9100
CCCn1c(C)c(C(=O)N2CC[C@H](N)C2)c2c(O)c3c(c(O)c21)C(=O)c1ccccc1C3=O	17100
Cc1[nH]c2c(O)c3c(c(O)c2c1C(=O)N1CCCC(N)C1)C(=O)c1ccccc1C3=O (stereo unspecified)	16500
NC1CCN(C(=O)c2csc3c(O)c4c(c(O)c23)C(=O)c2ccccc2C4=O)CC1	15700
O=C1c2ccccc2C(=O)c2c1c(O)c1scc(C(=O)N[C@@H]3CCNC3)c1c2O	15500
CC(=O)Cn1c(C)c(C(=O)N2CC[C@H](N)C2)c2c(O)c3c(c(O)c21)C(=O)c1ccccc1C3=O	> 20000
Cc1[nH]c2c(O)c3c(c(O)c2c1C(=O)N1C[C@@H](N)[C@H](N)C1)C(=O)c1ccccc1C3=O	> 20000
NC1CCCN(C(=O)c2csc3c(O)c4c(c(O)c23)C(=O)c2ccccc2C4=O)C1 (racemic)	7900
O=C1c2ccccc2C(=O)c2c1c(O)c1scc(C(=O)NC3CCCNC3)c1c2O (racemic)	6800
O=C1c2ccccc2C(=O)c2c1c(O)c1scc(C(=O)NC3CCNCC3)c1c2O	5800
Cc1[nH]c2c(O)c3c(c(O)c2c1C(=O)N[C@@H]1CCNC1)C(=O)c1ccccc1C3=O	14700

Tested on: not listed separately
Test: Resistance index, ratio of IC50 for human P-gp-positive/Doxorubicin-resistant K562/4 cells to IC50 for human K562 cells
Format: functional
Conditions: not given

Structure (SMILES)	Ratio IC50
N[C@@H]1CN(C(=O)c2csc3c(O)c4c(c(O)c23)C(=O)c2ccccc2C4=O)C[C@H]1N	11.2
CCCn1c(C)c(C(=O)N2CC[C@H](N)C2)c2c(O)c3c(c(O)c21)C(=O)c1ccccc1C3=O	5.8
Cc1[nH]c2c(O)c3c(c(O)c2c1C(=O)N1C[C@@H](N)[C@H](N)C1)C(=O)c1ccccc1C3=O	>20.8
